From US11746086B2, “Non-aggregating heptamethine cyanine fluorophores for in vivo imaging” (The USA, as represented by the Secretary, Department of …, priority 2018, dated 2023)

Experiments:
[1] = Absorption/emission maxima, molar absorption coefficient, absolute quantum yield and brightness of free dyes; type: physicochemical; settings: free dye; for ε / λabs / ΦF (PBS): PBS; for ΦF (PBS): absolute quantum yield; for ε × ΦF: brightness in PBS; for Relative brightness (PBS): relative to FNIR-Tag = 1.0; for λem: λexcitation = 740 nm
Protocol: Determination of Molar Absorption Coefficients and Absolute Fluorescence Quantum Yields: Molar absorption coefficients (c) were determined in PBS (pH 7.4) or 1:1 (v/v) MeOH/PBS (pH 7.4) using Beer's law, from plots of absorbance vs. concentration. Measurements were performed in 10 mm path length quartz cuvettes (Hellma 111-QS), maintained at 25° C., with absorbance at the highest concentration≤0.20.
(§1) Absolute quantum yields (ΦF) were measured using a Quantaurus-QY spectrometer (Hamamatsu, model C11374). This instrument is equipped with an integrating sphere to determine photons absorbed and emitted by a sample. Measurements were carried out at a concentration of 500 nM in PBS (50 mM, pH 7.4) and self-absorption corrections were performed using the instrument software.
Properties of FNIR-Tag and IRDye®-800CW are shown below in Table 1. […] Both dyes have similar absorption coefficients (ε), absolute quantum yields (ΦF) and brightness (ε×ΦF) in PBS solution, with free IR-800CW being slightly brighter

[2] = Photostability (photooxidation kinetics) of free dyes under 780 nm LED; type: physicochemical; settings: for photooxidation k: 1 μM in 50 mM PBS pH 7.4, 780 nm+/−20 nm LED, 20 mW/cm^2
Protocol: Stock solutions of 5 mM FNIR-Tag and IRDye®-800CW in DMSO were diluted into 50 mM PBS (pH=7.4) to afford 1 μM solutions. The photostability was determined using a procedure described previously using a 780 nm+/−20 nm LED at a light intensity of 20 mW/cm^2 (Nani et al., ACS Central Sci 2017, 3:329). […] As expected both of the free dyes have similar photostability.

[3] = Photochemical properties of panitumumab conjugates (absorption/emission spectra, H-aggregation, absolute quantum yield); type: physicochemical
Protocol: as §1
The photochemical properties of these conjugates were analyzed by several methods. Absorption/emission curves were obtained following dilution in 50 mM PBS to yield solutions that were 500 nM in protein concentration. […] A 3 h incubation time at room temperature elapsed prior to acquisition. Conjugates were diluted 40-fold into 1:1 MeOH:50 mM PBS and their absorption spectra were recorded on a plate reader using a 384 well plate transparent in the 280 nm range (i.e. UV Co-Star μclear 384 well plate from Greiner Bio-One).
To examine the relative brightness of these conjugates on an in vivo system, phantom imaging on the Perkin-Elmer IVIS® imaging system was performed.

[4] = test system: EGFR+ tumors; assay: In vivo fluorescence imaging of panitumumab conjugates, 100 μg dose; parameters: species or system athymic nude mice; settings: for tumor radiance output relative to IRDye-800CW conjugate: 48 h (peak accumulation), normalized to tumor size
Protocol: (§2) Animal Tumors Models: In vivo studies were performed according to the Frederick National Laboratory for Cancer Research (Frederick, Md.) Animal Care and Use committee guidelines. Fluorescence was longitudinally monitored employing the IVIS spectrum imager (PerkinElmer Inc, Waltham, Mass.). Imager specific Living Image software was used for image acquisition and analysis. Mice body temperature were maintained constant at 37° C. during the imaging procedure with a heated pad located under the anesthesia induction chamber, imaging table, and post procedure recovery cage. All mice were anesthetized in the induction chamber with 3% isoflurane with filtered (0.2 μm) air at 1 liter/minute flow rate for 3-4 minutes and then modified for imaging to 2% with O2 as a carrier with a flow rate of 1 liter/minute. Static 2D images were acquired with the following parameters: excitation filter 745±15 nm, emission filter 800±10 nm, f/stop2, medium binning (8×8) and auto exposure (typically 1-60 seconds). 5-week old female athymic nude mice were purchased from Charles River Laboratories International, Inc. (NCI-Frederick). MDA-MB-468 (5×10^6) in 100 μL of Hanks Balanced Salt Solution were injected the mice subcutaneously in the right dorsum. The size of the tumors were continuously monitored to reach 4-6 mm. In vivo studies were initiated 10 days post cell injection of the mice.
(§3) Data Analysis: Images were obtained using a Pearl Imager (LI-COR) using 800 nm fluorescence channel. Using white light images, the tumors were identified, and regions of interest (ROIs) were located on the tumors, livers, and necks (used as background). The intensities of ROIs were measured based on the total radiance efficiency using fluorescence images and analyzed using Living Image software. Statistics (unpaired t-test) were carried out using Prism 8.
Reduced dye aggregation was speculated to impact the pharmacokinetics. […] Fluorescence dorsal and ventral images were recorded at 0 h, 10 min, 24 h, 48 h, and 1 week post-injection. […]

[5] = test system: MDA-MB-468 tumor; assay: Dose lowering in vivo imaging study (10, 5, 1 μg) of DOL 4 conjugates; parameters: species or system athymic nude mice; settings: for tumor signal visualization over dosage range: DOL 4, 10, 5 and 1 μg tail injection
Protocol: as §2, §3
A dose lowering study with the goal of defining an optimal dose for FNIR-Tag conjugates was performed. Three doses, 10 μg, 5 μg, and 1 μg, which span the lower end of the doses used in prior studies, were examined. […]

[6] = panitumumab conjugates DOL 1, 2, 4, 500 nM in PBS

Compound	ε [1]	λabs [1] [nm]	ΦF (PBS) [1]	ε × ΦF [1]	Relative brightness (PBS) [1]	photooxidation k [2]	half-life at 1 μM ([2]; buffer, pH 7.4) [min]	quantum yield of the free dye ([3]; free dye) [%]	H-aggregate peak in the absorption spectrum (~705 nm) [3, 6]	tumor radiance output relative to IRDye-800CW conjugate ([4]; DOL 2, 100 μg tail injection) [×]	tumor radiance output relative to IRDye-800CW conjugate ([4]; DOL 4, 100 μg tail injection) [×]	λem [1]	λem ([1]; listed as IR-800CW) [nm]	fluorescent emission as function of labeling density [3, 6]	liver uptake (liver-to-background ratio) compared with FNIR-Tag conjugates ([4]; 100 μg, DOL 2 and 4, 10 min time point)	absolute quantum yield of fluorescence (ΦF) with increasing labeling density ([3]; conjugates DOL 1, 2, 4, PBS, 250 nM effective dye concentration) [%]	fluorescence intensity (total radiance normalized to tumor size) compared with IRDye-800CW conjugates ([5]; DOL 4, 10, 5, 1 μg, 4 h to 7 days)	tumor signal visualization over dosage range [5]	absolute quantum yield of fluorescence (ΦF), end of decrease with increased labeling ([3]; antibody conjugates, high labeling, PBS, 250 nM effective dye concentration) [%]	absolute quantum yield of fluorescence (ΦF), start of decrease with increased labeling ([3]; antibody conjugates, low labeling, PBS, 250 nM effective dye concentration) [%]
COCCOCCOCCN1/C(=C/C=C2\CCCC(/C=C/C3=[N+](CCOCCOCCOC)c4ccc(S(=O)(=O)[O-])cc4C3(C)C)=C2OCCC[N+](C)(C)CCCC(=O)ON2C(=O)CCC2=O)C(C)(C)c2cc(S(=O)(=O)[O-])ccc21 [FNIR-Tag]	200 000 M^−1 · cm^−1	765	0.099	19 800	1.0	0.04274	16.2	10	does not form a significant H-aggregate band	2.5	7.1	–	–	–	–	–	–	–	–	–
CC1(C)C(=CC=C2CCCC(C=CC3=[N+](CCCCCC(=O)[O-])c4ccc(S(=O)(=O)[O-])cc4C3(C)C)=C2Oc2ccc(S(=O)(=O)[O-])cc2)N(CCCCS(=O)(=O)[O-])c2ccc(S(=O)(=O)[O-])cc21.[Na+].[Na+].[Na+].[Na+] [IRDye®-800CW]	240 000 M^−1 · cm^−1	774	0.087	23 490	1.2	0.04463	–	–	–	–	–	795ª nm	795	nearly constant across the range of labeling density	significantly higher liver uptake	–	–	–	–	–
FNIR-Tag-panitumumab conjugates	–	–	–	–	–	–	–	–	–	–	–	–	–	increases with higher labeling density	–	~10	significantly higher fluorescence intensity	Clearly discernable signals	–	–
IRDye®-800CW conjugates: panitumumab labeled with IRDye®-800CW-NHS, comparator conjugates [reference compound]	–	–	–	–	–	–	–	–	–	–	–	–	–	–	–	–	–	could not be visualized below 5 μg	~2.5	~9
